The experiment has as its target T1, human EGFR (d746-750/T790M/C797S) (Homo sapiens, UniProt P00533, C797S/DEL746-750/T790M).
T1 construct: human EGFR (d746-750/T790M/C797S) (668-end, SignalChem); purchased SignalChem
As to the kind of experiment: EGFR C797S enzyme inhibition activity (ADP-Glo kinase assay). The conditions noted are these: purified enzyme 3 ng, ATP 5 μM, 25° C., 1 hour, luminescence; read-out: EGFR DTC Enzyme IC50. Type of experiment: biochemical. How it is done: <Experimental Example 1> Evaluation of EGFR C797S Enzyme Inhibition Activity
The compounds according to the present invention were reacted together with purified human EGFR (d746-750/T790M/C797S) (668-end, SignalChem) enzyme and a specific substrate and evaluated for enzyme inhibitory activity as described below. The reaction buffer consisted of 40 mM Tris-HCl pH 7.4, 20 mM MgCl2, 0.5 mg/ml BSA, and 50 μM DTT, and all reactions of the test substances were performed in reaction buffers. The compounds were serially diluted in 12 steps from a 10 mM DMSO stock, and the enzyme activity was measured at the final compound concentrations of 10, 3, 1, 0.3, 0.1, 0.03, 0.01, 0.003, 0.001, 0.0003, 0.0001, and 0 μM. In the assay, human EGFR (d746-750/T790M/C797S) (3 ng) enzyme was reacted with purified ATP (5 μM) and enzyme substrate (0.2 μg) at 25° C. for 1 hour, and the enzyme activity was determined using the in vitro ADP-Glo™ kinase assay (Promega). The enzyme activity inhibition was measured via luminescence by reacting the enzyme activity reaction solution, ADP-Glo reaction solution, and enzyme activity detection solution in a 2:2:1 ratio. Based on the luminescence of the enzyme activity of the solvent control group that was not treated with the compound, the degree of the enzyme activity inhibition depending on the treatment concentration of each compound was calculated, wherein the concentration of each compound that inhibited the enzyme activity by 50% was determined as the IC50 (nM) value, which was obtained using GraphPad Prism 8.4.3 (GraphPad software Inc., San Diego).
On the technique in general: ADP-Glo turns the ADP formed in a reaction into a luminescent signal.
T1 sequence (P00533 with tags, fused parts or gaps DEL746-750/T790M/C797S): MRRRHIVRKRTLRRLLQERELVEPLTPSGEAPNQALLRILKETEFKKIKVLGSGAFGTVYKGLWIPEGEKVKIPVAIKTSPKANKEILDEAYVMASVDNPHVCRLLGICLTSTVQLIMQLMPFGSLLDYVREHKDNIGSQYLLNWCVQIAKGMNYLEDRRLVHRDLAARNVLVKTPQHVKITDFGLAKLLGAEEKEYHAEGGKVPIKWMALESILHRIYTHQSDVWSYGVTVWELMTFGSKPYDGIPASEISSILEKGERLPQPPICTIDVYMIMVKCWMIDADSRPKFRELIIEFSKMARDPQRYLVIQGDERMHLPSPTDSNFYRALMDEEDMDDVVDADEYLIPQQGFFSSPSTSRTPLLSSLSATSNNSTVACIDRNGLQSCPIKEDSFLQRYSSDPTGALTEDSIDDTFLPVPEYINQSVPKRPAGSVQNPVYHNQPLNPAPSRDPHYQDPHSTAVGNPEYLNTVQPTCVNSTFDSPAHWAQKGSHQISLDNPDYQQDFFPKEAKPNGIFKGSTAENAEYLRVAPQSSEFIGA
One may read the IC50 as the concentration that gives 50% inhibition. Take `CO[C@H]1CCN(c2nccc(Nc3cc(NC(C)C)c(C(=O)N4CC(CS(C)(=O)=O)C4)cn3)n2)C[C@H]1F` (relative stereo) [Example 2, (6-((2-(cis-3-fluoro-4-methoxypiperidin-1-yl)pyrimidin-4-yl)amino)-4-(isopropylamino)pyri-din-3-yl)(3-((methylsulfonyl)meth-yl)azetidin-1-yl)methanone]: the concentration for half-maximal inhibition (IC50) was under 50 nM.

On to `CO[C@H]1CCN(c2nccc(Nc3cc(NC4CCOC4)c(C(=O)N4CC(CS(C)(=O)=O)C4)cn3)n2)C[C@H]1F` (relative stereo) [Example 14, (6-((2-(cis-3-fluoro-4-methoxypiperidin-1-yl)pyrimidin-4-yl)amino)-4-((tetrahydrofuran-3-yl)amino)pyridin-3-yl)(3-((methylsulfonyl)meth-yl)azetidin-1-yl)methanone], for which the IC50 was under 50 nM.

For `CC(C)Nc1cc(Nc2ccnc(N3CCN(C)CC3)n2)ncc1C(=O)N1CC(CS(C)(=O)=O)C1` [Example 11, (4-(isopyropylamino)-4-((2-(4-methylpiperazin-1-yl)pyrimidin-4-yl)amino)pyridin-3-yl)(3-((methylsulfonyl)meth-yl)azetidin-1-yl)methanone], the IC50 was 50 to 500 nM.

In the case of `Cn1cc(Nc2cc(Nc3ccnc(-c4cnn(S(=O)(=O)C5CC5)c4)n3)ncc2C(=O)N2CC(CS(C)(=O)=O)C2)cn1` [Example 22, (6-((2-(1-(cyclopropylsulfonyl)-1H-pyrazol-4-yl)pyrimidin-4-yl)amino)-4-((1-methyl-1H-pyrazol-4-yl)amino)pyridin-3-yl)(3-((methylsulfonyl)meth-yl)azetidin-1-yl)methanone], the IC50 fell in the range of 50 to 500 nM.

Take `CC(C)Nc1cc(Nc2ccnc(-c3cnn(S(=O)(=O)C4CC4)c3)n2)ncc1C(=O)N(C)CCN(C)C` [Example 26, 6-((2-(1-(cyclopropylsulfonyl)-1H-pyrazol-4-yl)pyrimidin-4-yl)amino)-N-(2-(dimethylamino)ethyl)-4-(isopropylamino)-N-methylnicotinamide]: the IC50 fell in the range of 50 to 500 nM.

In the case of `CC(C)Nc1cc(Nc2ccnc(-c3cnn(S(=O)(=O)C4CC4)c3)n2)ncc1C(=O)N(C)CC#N` [Example 28, N-(cyanomethyl)-6-((2-(1-(cyclopropylsulfonyl)-1H-pyrazol-4-yl)pyrimidin-4-yl)amino)-4-(isopropylamino)-N-methylnicotinamide], the IC50 fell in the range of 50 to 500 nM.

`CC(C)Nc1cc(Nc2ccnc(-c3cnn(S(=O)(=O)C4CC4)c3)n2)ncc1C(=O)N1CC(N(C)C)C1` [Example 37, (6-((2-(1-(cyclopropylsulfonyl)-1H-pyrazol-4-yl)pyrimidin-4-yl)amino)-4-(isopropylamino)pyri-din-3-yl)(3-(dimethylamino)azeti-din-1-yl)methanone]: the 50% inhibitory concentration (IC50) is under 50 nM.

`CC(C)Nc1cc(Nc2ccnc(-c3cnn(CC4CC4)c3)n2)ncc1C(=O)N1CC(CS(C)(=O)=O)C1` [Example 43, (6-((2-(1-(cyclopropylmethyl)-1H-pyrazol-4-yl)pyrimidin-4-yl)amino)-4-(isopropylamino)pyri-din-3-yl)(3-((methylsulfonyl)meth-yl)azetidin-1-yl)methanone]: the IC50 was under 50 nM.

Turning to `CC(C)Nc1cc(Nc2ccnc(N3CCN(S(C)(=O)=O)CC3)n2)ncc1C(=O)N1CC(CS(C)(=O)=O)C1` [Example 44, (4-(isopropylamino)-6-((2-(4-(methylsulfonyl)piper-azin-1-yl)pyrimidin-4-yl)amino)pyridin-3-yl)(3-((methylsulfonyl)meth-yl)azetidin-1-yl)methanone], the concentration for half-maximal inhibition (IC50) was in the range of 50 to 500 nM.

As for `CC(C)Nc1cc(Nc2ccnc(N3CCNC(=O)C3)n2)ncc1C(=O)N1CC(CS(C)(=O)=O)C1` [Example 45, 4-(4-((4-(isopropylamino)-5-(3-((methylsulfonyl)meth-yl)azetidine-1-carbonyl)pyridin-2-yl)amino)pyrimidin-2-yl)piperazin-2-one], the IC50 lay in the range of 50 to 500 nM.

On to `CC(C)Nc1cc(Nc2ccnc(-c3cnn(S(=O)(=O)C4CC4)c3)n2)ncc1C(=O)NCCc1ccccc1` [Example 52, 6-((2-(1-(cyclopropylsulfonyl)-1H-pyrazol-4-yl)pyrimidin-4-yl)amino)-4-(isopropylamino)-N-phenethylnicotinamide], for which the IC50 is under 50 nM.

Regarding `CC(C)Nc1cc(Nc2ccnc(-c3cnn(S(=O)(=O)C4CC4)c3)n2)ncc1C(=O)NCCC(C)c1ccccc1` (stereo not shown) [Example 54, 6-((2-(1-(cyclopropylsulfonyl)-1H-pyrazol-4-yl)pyrimidin-4-yl)amino)-4-(isopropylamino)-N-(3-phenylbutyl)nicotina-mide], the IC50 lay within 50 to 500 nM.

Consider `CNCCCNC(=O)c1cnc(Nc2ccnc(-c3cn[nH]c3)n2)cc1NC(C)C` [Example 59, 6-((2-(1H-pyrazol-4-yl)pyrimidin-4-yl)amino)-4-(isopropylamino)-N-(3-(methylamino)propyl) nicotinamide], for which the IC50 is under 50 nM.

Regarding `CNCCCNC(=O)c1cnc(Nc2ccnc(-c3cnn(S(=O)(=O)C4CC4)c3)n2)cc1NC(C)C` [Example 60, 6-((2-(1-(cyclopropylsulfonyl)-1H-pyrazol-4-yl)pyrimidin-4-yl)amino)-4-(isopropoylamino)-N-(3-(methylamino)propyl) nicotinamide], the IC50 is under 50 nM.

As for `CC(C)Nc1cc(Nc2ccnc(-c3cn[nH]c3)n2)ncc1C(=O)NC1CCNC1` (stereo not shown) [Example 67, 6-((2-(1H-pyrazol-4-yl)pyrimidin-4-yl)amino)-4-(isopropylamino)-N-(pyrrolidin-3-yl)nicotinamide], the IC50 is under 50 nM.

For the compound `CC(C)Nc1cc(Nc2ccnc(-c3cnn(S(=O)(=O)C4CC4)c3)n2)ncc1C(=O)NC1CCN(S(C)(=O)=O)CC1` [Example 69, 6-((2-(1-(cyclopropylsulfonyl)-1H-pyrazol-4-yl)pyrimidin-4-yl)amino)-4-(isopropylamino)-N-(1-(methylsulfonyl)piper-idin-4-yl)nicotinamide], the concentration for half-maximal inhibition (IC50) was under 50 nM.

Consider `CC(C)Nc1cc(Nc2ccnc(-c3cnn(S(=O)(=O)C4CC4)c3)n2)ncc1C(=O)Nc1cc(N2CCC(N3CCN(C)CC3)CC2)cc(S(C)(=O)=O)c1` [Example 75, 6-((2-(1-(cyclopropylsulfonyl)-1H-pyrazol-4-yl)pyrimidin-4-yl)amino)-4-(isopropylamino)-N-(3-(4-(4-methylpiperazin-1-yl)piperidin-1-yl)-5-(methyl-sulfonyl)phenyl) nicotinamide], for which the 50% inhibitory concentration (IC50) is under 50 nM.

Consider `CC(C)Nc1cc(Nc2ccnc(-c3cnn(S(=O)(=O)C4CC4)c3)n2)ncc1C(=O)NC[C@H]1CCCN1` [Example 77, (R)-6-((2-(1-(cyclopropylsulfonyl)-1H-pyrazol-4-yl)pyrimidin-4-yl)amino)-4-(isopropylamino)-N-(pyrrolidin-2-ylmethyl)nicotinamide], for which the half-inhibitory concentration (IC50) was under 50 nM.

For `C[C@@H]1CCOc2c(cnn2C)-c2nccc(n2)Nc2cc(c(C(=O)NCC#N)cn2)N1` [Example 84, (R)-N-(cyanomethyl)-1^1,6-dimethyl-1^1H-9-oxa-3,5-diaza-2(2,4)-pyrimidina-4(2,4)-pyridina-1(4,5)-pyrazolacyclo-nonaphane-4^5-carboxamide], the IC50 was under 50 nM.

In the case of `CC(C)Nc1cc(Nc2ccnc(-c3cnn(S(=O)(=O)C4CC4)c3)n2)ncc1NC(=O)Cc1ccc(C#N)cc1` [Example 85, 2-(4-cyanophenyl)-N-(6-((2-(1-(cyclopropylsulfonyl)-1H-pyrazol-4-yl)pyrimidin-4-yl)amino)-4-(isopropylamin)pyri-din-3-yl)acetamide], the IC50 was under 50 nM.

In the case of `C[C@H]1CCOc2c(cnn2C)-c2nccc(n2)Nc2cc(c(C(=O)Nc3cccc(C(F)(F)F)c3)cn2)N1` [Example 101, (S)-1^1,6-dimethyl-N-(3-(trifluoromethyl)phe-nyl)-1^1H-9-oxa-3,5-diaza-2(2,4)-pyrimidina-4(2,4)-pyridina-1(4,5)-pyrazolacyclo-nonaphane-4^5-carboxamide], the IC50 lay within 50 to 500 nM.

Regarding `C[C@H]1CCOc2c(cnn2C)-c2nccc(n2)Nc2cc(c(C(=O)O)cn2)N1` [Example 117, (S)-1^1,6-dimethyl-1^1H-9-oxa-3,5-diaza-2(2,4)-pyrimidina-4(2,4)-pyridina-1(4,5)-pyrazolacyclo-nonaphane-4^5-carboxylic acid], the IC50 was under 50 nM.

Values taken from patent US20250345329A1, “HETEROARYL DERIVATIVE COMPOUND AND USES THEREOF” (VORONOI, INC., priority 2022, published 2025).
